Source: patent US5079261A, “Use of lipoxin A4 and its derivatives as antagonists for slow-reacting substances of anaphylaxis” (Brigham and Women's Hospital, priority 1989, dated 1992)

How the values were obtained:
rat mesangial cells = experiment: IP3 formation ([3H]-inositol labeled mesangial cells) in response to LTD4 or LXA4; assay type: cell-based; settings: Mesangial cell, 5 s
Text: Statistical: ANOVA with Bonferroni modification for multiple pre-planned comparisons was used, within each group and between groups, to compare the changes in various whole kidney and microcirculatory indices which occurred from one period to another. In phosphoinositide generation studies, increases in [^3 H]-IP3 CPMs in agonist-treated cells were compared to vehicle-treated controls using upaired students t-test. Differences were considered significant at a p value ≤0.05. All values are reported as means ± SEM.
The isolated glomeruli were harvested from the surface of the 75 μm filter and washed twisce with the Hank's Media. […] Mesangial cell colonies were subcultured in 60 mm culture dishes, and experiments were carried out in cells from passages 2 to 12.
(§1) To label mesangial cells with [^3 H]-Inositol, cells grown to confluence in 60 mm culture dishes (10^6 cells/dish) were cultured in RPMI, supplemented with 10% dialyzed fetal calf serum and [^3 H]-inositol (1 μCi/ml) in a total incubation volume of 5 ml.
Reactions were terminated by the addition of cold 10% trichloroacetic acid (TCA), the supernatants subjected to ether extraction, and the aqueous phase titrated to neutral pH using 0.1 M Tris base. […] To ensure the reliability of the separation technique, the same methods for extraction and separation were applied to known amounts of [^3 H]-IP1, [^3 H]IP2, and [^3 H]-IP3 standards (New England Nuclear) mixed in a ratio of 3:2:1, respectively, and subjected to separation by HPLC.

LTD4 receptor = experiment: Inhibition of LTD4-induced IP3 formation in mesangial cells; assay type: cell-based, rat
Method: Mesangial Cell Culture: Rat mesangial cells were isolated and cultured as described previously (Harris, R. C., et al., J. Clin. Invest. 82:1028-1039(1988). Briefly, kidneys were exicesed from two young Sprague-Dawly rats under sterile conditions, and the cortices removed, minced, and washed several times in Hank's Balanced Salt Solution, containing 10 mM HEPES pH 7.4, amphotericin (0.25 μg/ml), and gentamicin (50 μg/ml). The tissue was then passed through consecutive sterilized stainless mesh filters with pore sizes of 212 μm, 150 μm, and then onto the final mesh of 75 μm. The isolated glomeruli were harvested from the surface of the 75 μm. The isolated glomeruli were harvested from the surface of the 75 μm filter and washed twisce with the Hank's Media. The glomeruli were suspended in RPMI 1640 Medium with 15% Fetal Bovine Serum (Givco), penicillin (100 μ/ml) and streptomycin (100 μg/ml) (Gibco), plated into 100 mm cell culture petri dishes, and incubated at 37° C. in a humidified atmosphere of 95% air and […] 5% CO2. Mesangial cell colonies were subcultured in 60 mm culture dishes, and experiments were carried out in cells from passages 2 to 12. The criteria used to establish the identify of mesangial cells were as described previously (Harris, R. C., et al., J. Clin. Invest. 82:1028-1039 (1988)). Cells were routinely grown in RPMI-1640, supplemented with 20% fetal calf serum, penicillin 100 μ/ml, and streptomycin 100 μg/ml. […] All eicosanoids were stored under argon at -70° C. in methanol and their purity and quantity verified periodically by ultraviolet scanning and high pressure liquid chromatography (Serhan, C. N. et al., J. Biol. Chem. 261:16340 (1986)).
as §1
Reactions were terminated by the addition of cold 10% trichloroacetic acid (TCA), the supernatants subjected to ether extraction, and the aqueous phase titrated to neutral pH using 0.1 M Tris base. [^3 H]-IP1, [^3 H]-IP2, and [^3 H]-IP3 in the aqueous phase were separated and quantitated by anion exchange column chromatography, using the method of Berridge et al. (Berridge, M. J., Biochem. J. 220:345-360 (1984)). To ensure the reliability of the separation technique, the same methods for extraction and separation were applied to known amounts of [^3 H]-IP1, [^3 H]IP2, and [^3 H]-IP3 standards (New England Nuclear) mixed in a ratio of 3:2:1, respectively, and subjected to separation by HPLC. The latter was performed using established methodology described previously (Cunha-Melo, J. R., et al., J. Biol. Chem. 262:11455-11463 (1987)).

[1] = biological target: T1, mesangial cell LTD4 receptor (Rattus norvegicus, UniProt Q924T8); settings: 10 nM [3H]-LTD4
T1 sequence (Q924T8 1-339): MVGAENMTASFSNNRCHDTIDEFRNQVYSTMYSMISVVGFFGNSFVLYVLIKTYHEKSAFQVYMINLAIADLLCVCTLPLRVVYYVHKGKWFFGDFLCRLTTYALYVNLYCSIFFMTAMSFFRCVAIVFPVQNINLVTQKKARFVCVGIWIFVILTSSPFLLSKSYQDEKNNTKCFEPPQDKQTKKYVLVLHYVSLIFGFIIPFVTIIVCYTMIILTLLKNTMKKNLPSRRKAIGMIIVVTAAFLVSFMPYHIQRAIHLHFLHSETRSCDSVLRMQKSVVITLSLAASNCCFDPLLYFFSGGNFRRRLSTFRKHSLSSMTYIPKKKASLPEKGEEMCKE
Method: Mesangial Cell Culture: Rat mesangial cells were isolated and cultured as described previously (Harris, R. C., et al., J. Clin. Invest. 82:1028-1039(1988). Briefly, kidneys were exicesed from two young Sprague-Dawly rats under sterile conditions, and the cortices removed, minced, and washed several times in Hank's Balanced Salt Solution, containing 10 mM HEPES pH 7.4, amphotericin (0.25 μg/ml), and gentamicin (50 μg/ml). The tissue was then passed through consecutive sterilized stainless mesh filters with pore sizes of 212 μm, 150 μm, and then onto the final mesh of 75 μm. The isolated glomeruli were harvested from the surface of the 75 μm. The isolated glomeruli were harvested from the surface of the 75 μm filter and washed twisce with the Hank's Media. The glomeruli were suspended in RPMI 1640 Medium with 15% Fetal Bovine Serum (Givco), penicillin (100 μ/ml) and streptomycin (100 μg/ml) (Gibco), plated into 100 mm cell culture petri dishes, and incubated at 37° C. in a humidified atmosphere of 95% air and 5% air and 5% CO2. Mesangial cell colonies were subcultured in 60 mm culture dishes, and experiments were carried out in cells from passages 2 to 12. […] Cells were routinely grown in RPMI-1640, supplemented with 20% fetal calf serum, penicillin 100 μ/ml, and streptomycin 100 μg/ml.
Binding studies were routinely performed at 4° C. […] The cells were then dissolved with 1.0 ml of 1.0 N NaOH, neutralized with HCl, dissolved in 10 ml of Aquasol (New England Nuclear, Boston, MA), and the bound radioactivity was determined using a scintillation counter (Beckman Instruments). […] Cell density was determined by counting cells from replicate wells, using a Coulter Counter ZBi (Coulter Electronics, Inc., Hialeah, Fla.).

guinea pig lung = settings: cited from earlier work
[2] = system: guinea pig ileum or trachea; settings: cited from earlier work
vascular smooth muscle = settings: cited from earlier work
hamster cheek pouch = settings: topical; cited from earlier work
neutrophils = settings: cited from earlier work
renal arterioles = settings: renal artery, anesthetized rats; cited from earlier work

## CCCCC[C@H](O)/C=C/C=C\C=C\C=C\[C@@H](O)[C@@H](O)CCCC(=O)O [LXA4, (5S,6R,15S)-5,6,15-trihydroxy-7,9,13-trans-11-cis-eicosatetraenoic acid]
Rat mesangial cells; 1 nM, 5 sec, n=3, p<0.05, read-out: increase in [3H]-IP3 counts over controls
  activation at 0.001 µM: 46 ± 14%
Rat mesangial cells; 10 nM LXA4, 5 sec, n=6, p<0.05, read-out: increase in [3H]-IP3 counts over controls
  activation at 0.01 µM: 50 ± 21%
Rat mesangial cells; 50 nM LXA4, 5 sec, n=3, p<0.05, read-out: increase in [3H]-IP3 counts over controls
  activation at 0.05 µM: 44 ± 22%
Rat mesangial cells; 100 nM, 5 sec, n=5, p<0.05, read-out: increase in [3H]-IP3 counts over controls
  activation at 0.1 µM: 45 ± 26%
LTD4 receptor; pre-incubation with 100 nM LXA4 for 10 min, then 10 nM LTD4 (n=3)
  Inhibition of LTD4-induced IP3 generation: completely prevented
LTD4 receptor; preexposure to 100 nM LXA4 for 10 minutes
  Inhibition of LTD4-induced stimulation of IP3 formation (FIG. 2): abrogation
[1]
  Competition for [3H]-LTD4 binding compared with LTB4: several-fold greater than that of the non-peptidoleukotriene, LTB4
  Competition for [3H]-LTD4 binding compared with LTE4: equipotent to that of LTE4
Guinea pig lung
  Contraction of pulmonary smooth muscle: contract pulmonary smooth muscle
[2]
  Contraction of ileum or trachea: not guinea pig ileum or trachea
Vascular smooth muscle
  Concentration that relaxes (dilates) vascular smooth muscle: less than 1 μM
Hamster cheek pouch
  Arteriolar dilation: pronounced arteriolar dilation
  Venular diameters: does not change venular diameters
neutrophils
  Neutrophil superoxide generation, elastase release and leukocyte chemotaxis: induce neutrophils to generate superoxide radicals, release elastase, and promote chemotaxis by leukocytes
Renal arterioles
  Glomerular capillary ultrafiltration coefficient (Kf): reduces
  Renal arteriole response: elicits vasodilator responses
